From article PMC9138567, “Strategy to Enhance Anticancer Activity and Induced Immunogenic Cell Death of Antimicrobial Peptides by Using Non-Nature Amino Acid Substitutions” (Biomedicines, 2022)
Non-standard residues stand in square brackets, D forms with d. Residues, ends and D or L forms follow the SMILES beside them. Bip = N[C@@H](Cc1ccc(-c2ccccc2)cc1)C(=O)O; Dip = N[C@H](C(=O)O)C(c1ccccc1)c1ccccc1; 2Nal = N[C@@H](Cc1ccc2ccccc2c1)C(=O)O

How the values were obtained:
PC 9 cells [1] = test: Extracellular ATP release, luciferin-luciferase assay; assay type: cell-based; details: for treatment time of highest ATP release (RLU): PC 9, 2× IC50, time points 0.5, 1, 1.5, 2 h, supernatant
Protocol: PC 9 cells were seeded at the density of 10,000 cells/ well in the 96-well plate and allowed to adhere for 48 h. Cells were treated with Nal-P-113, Bip-P-113, and Dip-P-113 at 2× IC50 for 0.5, 1, 1.5, and 2 h. Untreated cells were served as the control group. After being treated for different time points (0.5, 1, 1.5, and 2 h), the supernatant of cells was analyzed using the ENLITEN ATP luciferase assay kit (Promega, Madison, WI, USA). The level of extracellular ATP chemiluminescence was measured using the Wallac VICTOR 3 Multilabel plate reader (PerkinElmer, Shelton, CT, USA).

PC 9 cells [2] = test: Propidium iodide/Hoechst 33342 staining (plasma membrane integrity); assay type: cell-based; details: PC 9, 2× IC50, 120 min, serum-free RPMI, fluorescence microscopy
Protocol: To examine the membranolytic activities of peptides, the PI/Hoechst 33342 staining was performed in this study. The PI dye was used to stain damaged/dead cells, and Hoechst 33342 was used to specifically stain the nuclei of living cells. PC 9 cells were seeded at 20,000 cells/well in a RPMI medium and allowed to adhere for 48 h. Then, the cells were replaced with serum-free RPMI medium and then treated with 2× IC50 peptides at 37 °C for 120 min. Then, the PI and Hoechst 33342 were added at a final concentration of 1 μg/mL for 20 min. PC 9 cells were observed using the inverted fluorescent microscope Zeiss equipped with a 40× oil objective lens (Carl Zeiss, Jena, Germany). The experiments were repeated three times independently.

human fibroblasts (HFW) = details: MTT, 100 μg/mL; cited from earlier work
Protocol: The toxicity of the peptides was determined previously by measuring cell death using MTT assays against human fibroblasts (HFW).

PC 9 cells [3] = test: JC-1 staining (mitochondrial membrane potential); assay type: cell-based; details: PC 9, 2× IC50, 120 min, serum-free RPMI, fluorescence microscopy
Protocol: PC 9 cells were seeded at 40,000 cells/well in a RPMI medium and allowed to adhere for 24 h. […] The JC-1 dye was added at a final concentration of 1 μg/mL for 45 min. PC 9 cells were observed using the inverted fluorescent microscope Zeiss equipped with a 20× oil objective lens (Carl Zeiss, Jena, Germany). The experiments were repeated three times independently.

PC 9 cell line = assay type: cell-based; details: for cell survival rate: 4 h; for cells killed: PC 9, 2× IC50, within 2 h, MTT
Protocol: A total of 5000 cells were incubated with Nal-P-113, Bip-P-113, and Dip-P-113 at 2× IC50 for 0.5, 1, 2, 3, and 4 h. After treatment, the MTT solution was further incubated for 3 h. Absorbance was measured at 570 nm on the microplate reader (TECAN Sunrise ELISA Reader) after the dissolution of the formazan crystal in 100 µL DMSO solution. The cell survival rate was calculated as aforementioned for cell viability assay.

PC 9 cells [4] = test: Cytochrome c release, ELISA of supernatant; assay type: cell-based; details: PC 9, 2× IC50, supernatant ELISA; for cytochrome c release, maximal value: highest over 0.5-4 h time course (Bip-P-113: at 4 h); for cytochrome c release, minimum value: lowest over 0.5-4 h time course (Bip-P-113: at 30 min)
Protocol: PC 9 cells were seeded with 10,000 cells/well in the 96-well plate and allowed to adhere for 48 h and then treated with Nal-P-113, Bip-P-113, and Dip-P-113 at 2× IC50 for 0.5, 1, 1.5, 2, and 4 h. Untreated cells were used as a control group. Supernatants were collected after centrifugation at 16,000× g for 10 min. Samples were analyzed using the Quantikine ELISA Rat/ Mouse Cytochrome c Immunoassay (R & D Systems, Minneapolis, MN, USA) according to the manufacturer’s protocol. The optical density at the wavelength of 450 nm of each well was determined using the microplate reader (TECAN Sunrise ELISA Reader).

PC 9 cells [5] = test: Extracellular HMGB1 release, Western blot; assay type: cell-based
Protocol: The PC 9 cells were seeded at the density of 25,000 cells/well and left to adhere for 48 h. Cells were treated with Nal-P-113, Bip-P-113, and Dip-P-113 at 2× IC50 for 1, 2, and 4 h. After treatment of the peptides, the supernatant and lysate of the cells were collected separately for further experiments. The supernatant was collected after centrifugation at the speed of 1400× g. The cell lysate was washed twice using PBS before the sonication of the pellet using a bio-disruptor, and the disrupted pellet was centrifuged again for 10 min under 14,000 rpm at 4 °C. The concentration of the samples was quantified using the Bradford assay. Both supernatants and cell lysate were loaded and run on the sodium dodecyl sulfate polyacrylamide gel electrophoresis (SDS-PAGE) and were then electro transferred to a polyvinylidene difluoride (PVDF) membrane (Merck-Millipore, Burlington, MA, USA) in an electro-blot system, 30 V, 400 mA, for 75 min. The membrane was incubated in blocking buffer (5% skim milk, TBST buffer) for 1 h at room temperature and washed in TBST buffer three times. The anti-HMGB1 antibody (Abcam, Cambridge, UK, ab18256) was incubated overnight at 4 °C in the dilution ratio of 1:1000. The secondary antibody of a rabbit (diluted in 1:10,000) was incubated following rinsing with PBST three times for 2 h the next day at room temperature before being developed using a luminol reagent and imaged by a detected system (ImageQuant LAS 4000 mini).

[6] = system: PC 9 non-small cell lung cancer cells with EGFR mutation; assay type: cell-based; details: 24 h
Protocol: (§1) The three non-small cell lung cancer cell lines, H1975, PC 9, A549, and oral squamous cell carcinoma cell line OECM-1 were cultured in RPMI 1640 medium supplemented with 10% fetal bovine serum, 2 mM L-glutamine and 1% penicillin/ streptomycin. The oral cancer cell line C9 was cultured in DMEM with 10% fetal bovine serum, 2 mM L-glutamine, and 1% penicillin/ streptomycin.
(§2) The MTT assay was applied for cell viability test according to previous protocol. […] Medium treated with PBS served as control group. […] After medium was removed, 100 µL DMSO was added to dissolve the formazan crystal. Absorbance was measured at 570 nm using a microplate reader (TECAN Sunrise ELISA Reader).

[7] = system: OECM-1 gingival epidermoid carcinoma cells; assay type: cell-based; details: 24 h
Protocol: as §1, §2

[8] = system: H1975 non-small cell lung carcinoma cells; assay type: cell-based; details: 24 h
Protocol: as §1, §2

[9] = system: A549 adenocarcinomic alveolar basal epithelial cells; assay type: cell-based; details: 24 h
Protocol: as §1, §2

[10] = system: C9 oral squamous cell carcinoma cells; assay type: cell-based; details: 24 h
Protocol: as §1, §2

Question: With `CC(=O)N[C@@H](C)C(=O)N[C@@H](CCCCN)C(=O)N[C@@H](CCCNC(=N)N)C(=O)N[C@@H](Cc1ccc(-c2ccccc2)cc1)C(=O)N[C@@H](Cc1ccc(-c2ccccc2)cc1)C(=O)NCC(=O)N[C@@H](Cc1ccc(O)cc1)C(=O)N[C@@H](CCCCN)C(=O)N[C@@H](CCCNC(=N)N)C(=O)N[C@@H](CCCCN)C(=O)N[C@@H](Cc1ccccc1)C(=O)N[C@@H](Cc1ccc(-c2ccccc2)cc1)C(N)=O` [Bip-P-113] (Ac-AKR[Bip][Bip]GYKRKF[Bip]-NH2) as the compound, how does the “ATP release compared among the peptides” value (PC 9 cells [1]; PC 9, 2× IC50, at the 0.5 h peak) read?
Answer: The value was “lowest ATP release”.

Question: And the “treatment time of highest ATP release (RLU)” value (PC 9 cells [1])?
Answer: Its value is 0.5 h.

Question: What about the “plasma membrane integrity (PI entry)” value (PC 9 cells [2]) of the same compound?
Answer: The value was “cause damage to the plasma membrane integrity”.

Question: What about the cell death (human fibroblasts (HFW)) of the same compound?
Answer: The cell death was “less than 10%”.

Question: And the “mitochondrial membrane potential (JC-1)” value (PC 9 cells [3])?
Answer: Its value is “induced changes of the mitochondrial membrane potential”.

Question: And the cell survival rate (PC 9 cell line)?
Answer: The cell survival rate was “below 50%”.

Question: And the cells killed (PC 9 cell line)?
Answer: The cells killed was “more than 80%”.

Question: And the “cytochrome c release, maximal value” (PC 9 cells [4])?
Answer: The value was roughly 15 ng/mL.

Question: What about the “cytochrome c release, minimum value” (PC 9 cells [4]) of the same compound?
Answer: The value was 3 ng/mL.

Question: What about the “HMGB1 protein in supernatant” value (PC 9 cells [5]; PC 9, 2× IC50, 1 h treatment) of the same compound?
Answer: The value was “No HMGB1 protein was observed”.

Question: What about the “HMGB1 protein in supernatant” value (PC 9 cells [5]; PC 9, 2× IC50, after 2 and 4 h) of the same compound?
Answer: The value was “can hardly be detected”.

Question: And the IC50 [6]?
Answer: The IC50 was 64.2 µM.

Question: What about the IC50 [7] of the same compound?
Answer: The IC50 was 42.5 µM.

Question: And the IC50 [8]?
Answer: The IC50 was 63.6 µM.

Question: What about the IC50 [9] of the same compound?
Answer: The IC50 was 48.4 µM.

Question: And the IC50 [10]?
Answer: Its IC50 is 42 µM.

Question: For `CC(=O)N[C@@H](C)C(=O)N[C@@H](CCCCN)C(=O)N[C@@H](CCCNC(=N)N)C(=O)N[C@H](C(=O)N[C@H](C(=O)NCC(=O)N[C@@H](Cc1ccc(O)cc1)C(=O)N[C@@H](CCCCN)C(=O)N[C@@H](CCCNC(=N)N)C(=O)N[C@@H](CCCCN)C(=O)N[C@@H](Cc1ccccc1)C(=O)N[C@H](C(N)=O)C(c1ccccc1)c1ccccc1)C(c1ccccc1)c1ccccc1)C(c1ccccc1)c1ccccc1` [Dip-P-113] (Ac-AKR[Dip][Dip]GYKRKF[Dip]-NH2), which “treatment time of highest ATP release (RLU)” value (PC 9 cells [1]) is on record?
Answer: Its value is 0.5 h.

Question: What about the “plasma membrane integrity (PI entry)” value (PC 9 cells [2]) of the same compound?
Answer: Its value is “cause damage to the plasma membrane integrity”.

Question: What about the cell death (human fibroblasts (HFW)) of the same compound?
Answer: The cell death was “less than 10%”.

Question: And the “mitochondrial membrane potential (JC-1)” value (PC 9 cells [3])?
Answer: Its value is “induced changes of the mitochondrial membrane potential”.

Question: And the cell survival rate (PC 9 cell line)?
Answer: The cell survival rate was “around 60%”.

Question: What about the “cytochrome c release, maximal value” (PC 9 cells [4]) of the same compound?
Answer: Its value is “around 3.5 ng/mL”.

Question: What about the “cytochrome c release, minimum value” (PC 9 cells [4]) of the same compound?
Answer: Its value is “lower than 2 ng/mL”.

Question: And the “HMGB1 protein in supernatant” value (PC 9 cells [5]; PC 9, 2× IC50, 1 h treatment)?
Answer: The value was “No HMGB1 protein was observed”.

Question: What about the “HMGB1 protein in supernatant” value (PC 9 cells [5]; PC 9, 2× IC50, after 2 and 4 h) of the same compound?
Answer: The value was “can clearly be seen”.

Question: What about the IC50 [6] of the same compound?
Answer: Its IC50 is 71.5 µM.

Question: And the IC50 [7]?
Answer: Its IC50 is 62.9 µM.

Question: And the IC50 [9]?
Answer: The IC50 was 96.4 µM.

Question: And the IC50 [10]?
Answer: The IC50 was 67.9 µM.

Question: What does the source list for `CC(=O)N[C@@H](C)C(=O)N[C@@H](CCCCN)C(=O)N[C@@H](CCCNC(=N)N)C(=O)N[C@@H](Cc1ccc2ccccc2c1)C(=O)N[C@@H](Cc1ccc2ccccc2c1)C(=O)NCC(=O)N[C@@H](Cc1ccc(O)cc1)C(=O)N[C@@H](CCCCN)C(=O)N[C@@H](CCCNC(=N)N)C(=O)N[C@@H](CCCCN)C(=O)N[C@@H](Cc1ccccc1)C(=O)N[C@@H](Cc1ccc2ccccc2c1)C(N)=O` [Nal-P-113] (Ac-AKR[2Nal][2Nal]GYKRKF[2Nal]-NH2)?
Answer: treatment time of highest ATP release (RLU) (PC 9 cells [1]): 0.5 h; plasma membrane integrity (PI entry) (PC 9 cells [2]): cause damage to the plasma membrane integrity; cell death (human fibroblasts (HFW)): less than 10%; mitochondrial membrane potential (JC-1) (PC 9 cells [3]): induced changes of the mitochondrial membrane potential; cell survival rate (PC 9 cell line): below 50%; cells killed (PC 9 cell line): more than 80%; cytochrome c release, maximal value (PC 9 cells [4]): around 3.5 ng/mL; cytochrome c release, minimum value (PC 9 cells [4]): lower than 2 ng/mL; HMGB1 protein in supernatant (PC 9 cells [5]; PC 9, 2× IC50, 1 h treatment): No HMGB1 protein was observed; HMGB1 protein in supernatant (PC 9 cells [5]; PC 9, 2× IC50, after 2 and 4 h): can clearly be seen; IC50 [6]: 28.1 µM; IC50 [7]: 25.9 µM; IC50 [8]: 58.3 µM; IC50 [9]: 38.2 µM; IC50 [10]: 21.4 µM

Question: For `CC(=O)N[C@@H](C)C(=O)N[C@@H](CCCCN)C(=O)N[C@@H](CCCNC(=N)N)C(=O)N[C@@H](Cc1c[nH]cn1)C(=O)N[C@@H](Cc1c[nH]cn1)C(=O)NCC(=O)N[C@@H](Cc1ccc(O)cc1)C(=O)N[C@@H](CCCCN)C(=O)N[C@@H](CCCNC(=N)N)C(=O)N[C@@H](CCCCN)C(=O)N[C@@H](Cc1ccccc1)C(=O)N[C@@H](Cc1c[nH]cn1)C(N)=O` [P-113, reference compound] (Ac-AKRHHGYKRKFH-NH2; N-terminus and C-terminus assumed), which IC50 [6] is on record?
Answer: The IC50 was greater than 200 µM.

Question: Which results are given for `CC(=O)N[C@@H](C)C(=O)N[C@@H](CCCCN)C(=O)N[C@@H](CCCNC(=N)N)C(=O)N[C@@H](Cc1ccccc1)C(=O)N[C@@H](Cc1ccccc1)C(=O)NCC(=O)N[C@@H](Cc1ccc(O)cc1)C(=O)N[C@@H](CCCCN)C(=O)N[C@@H](CCCNC(=N)N)C(=O)N[C@@H](CCCCN)C(=O)N[C@@H](Cc1ccccc1)C(=O)N[C@@H](Cc1ccccc1)C(N)=O` [Phe-P-113] (Ac-AKRFFGYKRKFF-NH2)?
Answer: IC50 [6]: 173 µM; IC50 [7]: 120 µM; IC50 [9]: 99.1 µM; IC50 [10]: 80.5 µM
